# Assays:
# EphA4 = experiment: ephrin-A1-induced EphA4 clustering assay in cultured hippocampal neurons; assay type: cell-based; conditions: dose of 50 μM
# Description: FIG. 1. Inhibitory effect of small molecule compounds on EphA4 signaling. Inhibitory activity of 22 selected FDA-approved drugs in ephrin-A1-induced EphA4 clusters in cultured hippocampal neurons. n=4 neuronal cell cultures; *p<0.05 vs. Cont; unpaired Student's t-test.
# The inhibitory activity of the 22 drugs listed in Table 1 was examined using an ephrin-A1-induced EphA4 clustering assay in cultured hippocampal neurons.
# [1] = molecular target: T1, extracellular domain of mouse EphA4 (interaction with ephrin-A1) (Mus musculus, UniProt Q03137); experiment: Dose-response ELISA of the EphA4/ephrin-A1 interaction; assay type: binding; conditions: read-out: IC50, inhibition of interaction between extracellular domain of mouse EphA4 and ephrin-A1
# T1 construct: the extracellular domain of mouse EphA4
# T1 sequence (Q03137 20-547 limits assumed): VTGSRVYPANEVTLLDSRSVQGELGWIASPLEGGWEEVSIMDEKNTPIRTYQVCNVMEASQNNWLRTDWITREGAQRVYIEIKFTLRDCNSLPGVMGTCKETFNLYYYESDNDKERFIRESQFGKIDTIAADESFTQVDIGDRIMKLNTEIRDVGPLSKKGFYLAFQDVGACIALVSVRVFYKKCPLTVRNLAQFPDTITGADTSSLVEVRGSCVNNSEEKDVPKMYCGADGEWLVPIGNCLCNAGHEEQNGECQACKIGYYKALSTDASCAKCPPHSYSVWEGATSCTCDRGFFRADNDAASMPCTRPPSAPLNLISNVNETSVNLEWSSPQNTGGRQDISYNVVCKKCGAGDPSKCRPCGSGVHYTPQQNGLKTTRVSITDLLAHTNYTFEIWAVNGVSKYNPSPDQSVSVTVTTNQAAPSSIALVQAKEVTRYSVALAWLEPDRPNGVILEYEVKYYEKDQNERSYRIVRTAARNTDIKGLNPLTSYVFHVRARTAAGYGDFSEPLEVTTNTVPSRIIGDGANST
# Description: FIG. 3. […] Dose-response curve of nilotinib against the interaction of mouse EphA4 with ephrin-A1.
# Nilotinib is a kinase inhibitor that targets the following kinases: BCR-ABL, KIT, LCK, EPHA3, EPHA8, DDR1, DDR2, PDGFRB, MAPK11, and ZAK. Nilotinib is predicted to form hydrogen bonds with Q70 in the D-E loop and T104. It also has hydrophobic interactions with F154, V157, 1163, L166, A193, and V195.
IC50 [1],Molecule,inhibition of ephrin-A1-induced EphA4 clustering (EphA4)
,CN1CCC(=C2c3ccccc3C=Cc3ccccc32)CC1 [Cyproheptadine],30%
,Retapamulin,30%
70.7 µM,Cc1cn(-c2cc(NC(=O)c3ccc(C)c(Nc4nccc(-c5cccnc5)n4)c3)cc(C(F)(F)F)c2)cn1 [Nilotinib],30%
,C[C@]12CC[C@H](O)CC1=CC[C@@H]1[C@@H]2CC[C@]2(C)C(c3cccnc3)=CC[C@@H]12 [abiraterone],30%
